Results from patent US9657110B2, “Polypeptides and use thereof” (ASTON UNIVERSITY, priority 2011, dated 2017).

Legend:
HOB cells = test: Cell adhesion assay (attachment and spreading) on FN or TG-FN matrix with RGD or RAD peptide; assay type: cell-based, human
Experimental: The cell adhesion assay was carried out as previously described (Wang et al., 2010). Briefly, 96-well plastic tissue culture plates were coated with 5 μg/ml FN in 50 mM Tris-HCl, pH 7.4 at 4° C. overnight, after washing three times with 100 μl of 50 mM Tris-HCl, pH7.4, gplTG (20 μg/ml) in 2 mM EDTA in PBS, pH 7.4 was added to the wells for 1 h at 37° C. and the wells were washed three times with 50 mM Tris-HCl, pH7.4. Serum-starved (for 16 h) HOB cells with different treatments as introduced below in serum-free medium were detached by trypsinization and then treated with trypsin inhibitor. Cells were washed three times with serum free medium and seeded onto either FN or TG-FN matrix for 20-40 min. Peptides P1 or scrambled P1 (P1s), were added at concentrations between 100 μg/ml and 300 μg/ml. […] Attached cells were washed once with PBS, pH 7.4 and then fixed with 3.7% paraformaldehyde, further permeabilised with 0.1% (v/v) Triton® X-100 detergent in PBS, and co-stained with May-Grunwald and Giemsa stains as described previously (Jones et al., 1997). Images of stained cells from non-overlapping fields of view were photographed at 20× magnification and analyzed using the imaging analysis program Scion Image (National Institute of Health). Cell attachment and spreading were quantified, and the number of cells per image was assessed as described previously (Telci et al., 2008). Cell attachment on FN without peptide was considered as the control value for all the experiments unless stated otherwise. The mean number of attached cells form three wells was calculated and that of the control was considered as 100%. The mean number of attached cells (cell attachment) for each sample was then expressed as the percentage of cell attachment on FN. The mean percentage of attached cells that are spread (cell spreading) for each sample was determined separately, and the mean percentage of spread cells on FN control was expressed as 100%. The mean percentage of spread cells for each sample was then normalised against that of FN control Cell attachment on FN without the RGD peptide was considered as the control value for most of the experiments unless stated otherwise The mean number of attached cells from three wells was calculated and that of the control was considered as 100%. The mean number of attached cells (cell attachment) for each sample was then expressed as the percentage of cell attachment on FN. The mean percentage of attached cells that are spread (cell spreading) for each sample was determined separately, and the mean percentage of spread cells on the FN control was expressed as 100%. The mean percentage of spread cells for each sample was then normalised against that of FN control Cell pre-treatments included: PKCα inhibitor Go6976 (5 μM) or GK21 peptide (8 μM) for 1 h in serum-free medium prior to cell detachment; heparinase (15 mU/ml) or chondroitinase (15 mU/ml) to cells in suspension in serum free medium for 1 h. For the detection of the signalling molecules via Western blotting, the cell adhesion assay was performed in 60 mm Petri dishes and cells were collected into cell lysis buffer (Santa Cruz, UK) as described previously and pre-cleared by centrifugation at 300×g for 10 min. Western blotting was performed with specific anti-p-397 FAK or p-ERK1/2 antibodies. Membranes were stripped (Telci et al., 2008) and total FAK and ERK1/2 detected using anti-FAK and anti-ERK1/2 antibodies as listed in Table 2, while α-tubulin was used as an equal loading standard (Wang et al., 2011).
Cell adhesion and spreading assays were performed as described above in Example 1 method ‘Cell adhesion assay’

p-397 FAK = test: Western blotting of p-397 FAK after cell adhesion assay; assay type: cell-based, human; conditions: HOB on FN, RGD, peptide 100 μg/ml
Experimental: (§1) Cell lysates containing 50 μg of protein were dissolved in 2× Laemmli buffer (Sigma-Aldrich Ltd, Dorset, UK) and separated by SDS-PAGE. Western blotting was performed using specific primary antibodies as described above. Primary antibodies were detected using the appropriate secondary antibody conjugated to horse radish peroxidase. Detection was by chemiluminescence (Amersham ECL™ Western Blotting System, GE Healthcare, UK).
(§2) The cell adhesion assay was carried out as previously described (Wang et al., 2010). […] Images of stained cells from non-overlapping fields of view were photographed at 20× magnification and analyzed using the imaging analysis program Scion Image (National Institute of Health). Cell attachment and spreading were quantified, and the number of cells per image was assessed as described previously (Telci et al., 2008). […] The mean number of attached cells form three wells was calculated and that of the control was considered as 100%. The mean number of attached cells (cell attachment) for each sample was then expressed as the percentage of cell attachment on FN. The mean percentage of attached cells that are spread (cell spreading) for each sample was determined separately, and the mean percentage of spread cells on FN control was expressed as 100%. […]

p-ERK1/2 = test: Western blotting of p-ERK1/2 after cell adhesion assay; assay type: cell-based, human; conditions: HOB on FN, RGD, peptide 100 μg/ml
Experimental: as §1, §2

[1] = Binding of TG2 to heparin SEPHAROSE, elution with NaCl gradient; conditions: for binding to heparin SEPHAROSE (in words): compared with wt TG2
Experimental: HEK cells, transiently transfected with wild-type and mutant TG2 were washed twice with ice cold PBS, pH 7.4 and lysed by the addition of 150 μl of 20 mM Tris-HCl pH 7.4, 10 mM EGTA, 2 mM EDTA, 1 mM NaF and 1 mM Na3VO4. After clarification by centrifugation, lysates were mixed with 450 μl of 50 mM Tris-HCl, 1 mM EDTA, 1 mM DTT, pH 7.5 and applied to a 5 ml Heparin SEPHAROSE® column (GE Healthcare) equilibrated in 50 mM Tris-HCl, 1 mM EDTA, 1 mM DTT pH 7.5 (buffer) at a flow rate of 1 ml/min. For the analysis of GTP-bound TG2 (closed conformation), lysates were pre-incubated for 1 h at room temperature with 0.5 mM GTP in 50 mM Tris-HCl, 2 mM MgCl2, 1 mM EDTA, 1 mM DTT pH 7.5. For the analysis of inhibitor-reacted TG2 (open conformation), lysates were incubated with 0.5 mM of irreversible inhibitor R281 (Griffin et al., 2008) and 10 mM CaCl2. The column was washed with 25 ml of buffer and protein was eluted with a linear gradient of increasing NaCl concentration (0-1M) in buffer. Fractions were assayed for TG2 activity and analysed for the presence of TG2 antigen by SDS-PAGE and Western blotting using CUB7402.

NIH 3T3 cells = test: Detection of TG2 at cell surface (biotinylation), in ECM and in culture medium of transfected cells; assay type: cell-based, mouse; conditions: transfected NIH 3T3 cells; for presence on the cell surface: biotinylation and Western blot, vs wild-type TG2
Experimental: Cell surface proteins were labelled by biotinylation as described previously (Wang et al., 2010). Briefly, cell monolayers were rinsed three times with ice-cold PBS pH 8.0 and labelled with 0.8 mM sulfo-NHS-LC-biotin dissolved in PBS pH 8.0 at 4° C. for 20 min. Cells were then washed with 50 mM Tris-HCl, pH 8.0 and lysed with 1% SDS at 4° C. in PBS pH8.0. Following denaturation at 95° C., cell lysates were clarified by centrifugation at 14,000×g at 20° C. and 200 μg of protein was incubated overnight at 4° C. with NEUTRAVIDIN® avidin protein-Agarose resin. After washing three times with PBS pH 8.0, the biotin-labelled proteins were dissolved in 2× Laemmli buffer separated by SDS-PAGE and subjected to Western blotting.
Following transfection, cells were incubated for 24 h with 10% (v/v) serum, which was replaced with 1% (v/v) serum and TG2 expression was allowed to proceed for a further 48 h. Proteins from 1 ml of medium were precipitated by the addition of ice cold 20% (w/v) trichloroacetic acid (TCA) to a final concentration of 10% (w/v) Pelleted proteins were then washed once with ice cold 10% (w/v) TCA, ethanol-acetone (1:1) and acetone, and resuspended in 2× Laemmli buffer (Sigma-Aldrich, UK) and analysed by SDS-PAGE and Western blot analysis using monoclonal anti-TG2 antibody (Cub7402). The remaining cells were detached with 2 mM EDTA in PBS, pH 7.4 and the ECM was extracted with 0.1% (w/v) deoxycholate in PBS, pH 7.4. The residual deoxycholate-insoluble ECM proteins were dissolved in 2× Laemmli buffer for further analysis by SDS-PAGE and Western blotting using Cub7402.

[2] = HOB cells on FN, RGD peptide, tested 0.01-200 μg/ml

Question: With “NPKFLKNAGRDCSRRSS (listed as Homo sapiens) [P1]” as the molecule, how does the “effect on binding of cells to FN alone” value (HOB cells; FN matrix, 100-300 μg/ml, compared to P1s) read?
Answer: small but significant enhancement of adhesion

Question: What about the “concentration at which compensation of RGD-induced loss of cell adhesion started” value (HOB cells; [2]) of the same molecule?
Answer: 5 to 10 µg/mL

Question: And the “concentration of maximum compensation of RGD-induced loss of cell adhesion” value (HOB cells; [2])?
Answer: 50 to 100 µg/mL

Question: And the “compensatory effect on RGD-induced loss of cell adhesion after heparinase pre-treatment” value (HOB cells; HOB cells treated with heparinase 15 mU/ml (not chondroitinase), FN)?
Answer: abolished

Question: What about the “compensatory effect on RGD-induced loss of cell adhesion after syndecan-4 siRNA” value (HOB cells; HOB cells, syndecan-4 siRNA (around 50% reduction in protein expression)) of the same molecule?
Answer: comparable reduction in the compensatory effect

Question: What about the “effect on attachment and spreading of HOB cells on TG-FN in the presence of the RGD peptide” value (HOB cells; TG-FN matrix, peptide 100-300 μg/ml) of the same molecule?
Answer: small, but not significant dose-dependent negative effect

Question: What about the “phosphorylation of p-FAK397” value (p-397 FAK) of the same molecule?
Answer: paralleled by the phosphorylation of p-FAK397

Question: And the “phosphorylation of p-ERK1/2” value (p-ERK1/2)?
Answer: paralleled by the phosphorylation of p-FAK397 and p-ERK1/2

Question: What does the source list for “HS2: TG2 mutant K205A, R209A (NPKFLKNAGRDCSRRSS)”?
Answer: binding to heparin SEPHAROSE (in words) [1]: lost the capability to bind with high affinity to heparin; NaCl concentration of optimum elution / major peak from heparin SEPHAROSE ([1]; lysate of HEK293T/17 cells, 0-1M NaCl gradient): 60 mM NaCl; presence in spent culture medium (NIH 3T3 cells; Western blot): detectable; presence in the ECM (NIH 3T3 cells; Western blot): not detectable; presence on the cell surface (NIH 3T3 cells): detected but in reduced amounts

B1: HS1: TG2 mutant K600A, R601A, K602A (protein, UniProt P21980 2-687, looked up, variant K600A R601A K602A)
Protein-glutamine …: AEELVLERCDLELETNGRDHHTADLCREKLVVRRGQPFWLTLHFEGRNYEASVDSLTFSVVTGPAPSQEAGTKARFPLRDAVEEGDWTATVVDQQDCTLSLQLTTPANAPIGLYRLSLEASTGYQGSSFVLGHFILLFNAWCPADAVYLDSEEERQEYVLTQQGFIYQGSAKFIKNIPWNFGQFEDGILDICLILLDVNPKFLKNAGRDCSRRSSPVYVGRVVSGMVNCNDDQGVLLGRWDNNYGDGVSPMSWIGSVDILRRWKNHGCQRVKYGQCWVFAAVACTVLRCLGIPTRVVTNYNSAHDQNSNLLIEYFRNEFGEIQGDKSEMIWNFHCWVESWMTRPDLQPGYEGWQALDPTPQEKSEGTYCCGPVPVRAIKEGDLSTKYDAPFVFAEVNADVVDWIQQDDGSVHKSINRSLIVGLKISTKSVGRDEREDITHTYKYPEGSSEEREAFTRANHLNKLAEKEETGMAMRIRVGQSMNMGSDFDVFAHITNNTAEEYVCRLLLCARTVSYNGILGPECGTKYLLNLNLEPFSEKSVPLCILYEKYRDCLTESNLIKVRALLVEPVINSYLLAERDLYLENPEIKIRILGEPKQAAALVAEVSLQNPLPVALEGCTFTVEGAGLTEEQKTVEIPDPVEAGEEVKVRMDLLPLHMGLHKLVVNFESDKLKAVKGFRNVIIGPA
Question: With B1 as the molecule, how does the “binding to heparin SEPHAROSE (in words)” value [1] read?
Answer: bound heparin identically to TG2

Question: And the “presence on the cell surface” value (NIH 3T3 cells)?
Answer: greater levels
